# Reference: patent publication US20020035061A1, “COMPOSITIONS AND METHODS FOR TREATING INFECTIONS USING CATIONIC PEPTIDES ALONE OR IN COMBINATION WITH ANTIBIOTICS” (priority 1996, published 2002)
# Peptide text beside a SMILES is read from it.
# Key:
# Test in all cases: microbe, parasite or virus in culture
# Format in all cases: cell-based
# [1] = system: vancomycin / teicoplanin resistant enterococci
# [2] = system: inherently resistant microorganisms
# [3] = system: microorganisms with acquired resistance; conditions: for Peptide MIC: in µg/mL
# bacterial isolates = conditions: for Peptide MIC Alone: Tobramycin section
# S. aureus = S. aureus SA25
# [4] = S. aureus SA014 (also SA014 MRSA)
# [5] = S. aureus SA025 (also SA025 MRSA)
smiles,measurement,setting,value
CC[C@H](C)[C@H](NC(=O)[C@H](C)NC(=O)[C@@H]1CCCN1C(=O)CNC(=O)[C@H](C)NC(=O)[C@@H](NC(=O)[C@H](CCCCN)NC(=O)[C@H](CC(C)C)NC(=O)CNC(=O)[C@H](CO)NC(=O)[C@H](CC(C)C)NC(=O)[C@@H](NC(=O)[C@H](CCCNC(=N)N)NC(=O)[C@H](CCCNC(=N)N)NC(=O)[C@H](Cc1c[nH]c2ccccc12)NC(=O)[C@H](Cc1c[nH]c2ccccc12)NC(=O)[C@H](CCCCN)NC(=O)[C@@H](N)CCCCN)C(C)C)[C@@H](C)O)C(=O)N[C@@H](CCC(N)=O)C(=O)N[C@@H](CO)C(=O)N[C@H](C(=O)N[C@@H](CC(C)C)C(=O)N[C@@H](CC(N)=O)C(=O)N[C@@H](CCCCN)C(=O)O)C(C)C [MBI 21A1] (H-KKWWRRVLSGLKTAGPAIQSVLNK-OH; N-terminus and C-terminus assumed),Peptide MIC + Vancomycin,[1]; E. faecalis EFS012,2 µg/mL
same,Vancomycin MIC + Peptide,[1]; E. faecalis EFS012,4 µg/mL
same,Peptide MIC + Vancomycin,[1]; E. faecalis EFS013,2 µg/mL
same,Vancomycin MIC + Peptide,[1]; E. faecalis EFS013,4 µg/mL
same,Vancomycin MIC + Peptide,"[1]; in combination with the labelled peptide, E. faecium EFM010",4 µg/mL
same,Peptide MIC + Vancomycin,"[1]; in combination with vancomycin, E. faecium EFM010",16 µg/mL
same,Peptide MIC Alone,"[2]; E. coli, Mupirocin section",2 µg/mL
same,FIC,"[2]; peptide + Tobramycin, S. aureus",0.50
same,Peptide MIC + Tobramycin,[3]; P. aeruginosa PA022,0.125 µg/mL
same,Tobramycin MIC + Peptide,[3]; P. aeruginosa PA022,4 µg/mL
same,Peptide MIC Alone,"[3]; P. aeruginosa PA022, Tobramycin section",4 µg/mL
same,Peptide MIC + Tobramycin,[3]; P. aeruginosa PA026,0.125 µg/mL
same,Tobramycin MIC + Peptide,[3]; P. aeruginosa PA026,4 µg/mL
same,Peptide MIC Alone,"[3]; P. aeruginosa PA026, Tobramycin section",16 µg/mL
same,Peptide MIC + Tobramycin,[3]; P. aeruginosa PA030,8 µg/mL
same,Tobramycin MIC + Peptide,[3]; P. aeruginosa PA030,0.25 µg/mL
same,Peptide MIC Alone,"[3]; P. aeruginosa PA030, Tobramycin section",16 µg/mL
same,Peptide MIC + Tobramycin,[3]; P. aeruginosa PA032,32 µg/mL
same,Tobramycin MIC + Peptide,[3]; P. aeruginosa PA032,1 µg/mL
same,Peptide MIC Alone,"[3]; P. aeruginosa PA032, Tobramycin section",64 µg/mL
same,Ciprofloxacin MIC + Peptide,[3]; P. aeruginosa PA41,1 µg/mL
same,Peptide MIC + Ciprofloxacin,[3]; P. aeruginosa PA41,4 µg/mL
same,Peptide MIC Alone,"[3]; P. aeruginosa PA41, Ciprofloxacin section",16 µg/mL
same,Ciprofloxacin MIC + Peptide,[3]; P. aeruginosa PA77,1 µg/mL
same,Peptide MIC + Ciprofloxacin,[3]; P. aeruginosa PA77,16 µg/mL
same,Peptide MIC Alone,"[3]; P. aeruginosa PA77, Ciprofloxacin section",32 µg/mL
same,Peptide MIC,"[3]; P. aeruginosa, combination with Ciprofloxacin",16
same,Peptide MIC,"[3]; S. aureus, combination with Ciprofloxacin",2
same,Peptide MIC,"[3]; S. aureus, combination with Mupirocin",16
same,Peptide MIC + Tobramycin,[3]; S. maltophilia SMA029,32 µg/mL
same,Tobramycin MIC + Peptide,[3]; S. maltophilia SMA029,4 µg/mL
same,Peptide MIC Alone,"[3]; S. maltophilia SMA029, Tobramycin section",128 µg/mL
same,Peptide MIC + Tobramycin,[3]; S. maltophilia SMA030,32 µg/mL
same,Tobramycin MIC + Peptide,[3]; S. maltophilia SMA030,4 µg/mL
same,Peptide MIC Alone,"[3]; S. maltophilia SMA030, Tobramycin section",>128 µg/mL
same,Peptide MIC + Tobramycin,bacterial isolates; B. cepacia BC001,0.25 µg/mL
same,Tobramycin MIC + Peptide,bacterial isolates; B. cepacia BC001,32 µg/mL
same,Peptide MIC Alone,bacterial isolates; B. cepacia BC001,>128 µg/mL
same,Mupirocin MIC + Peptide,bacterial isolates; E. coli ECO3,3 µg/mL
same,Peptide MIC + Mupirocin,bacterial isolates; E. coli ECO3,2 µg/mL
same,Mupirocin MIC + Peptide,bacterial isolates; E. coli SBECO2,30 µg/mL
same,Peptide MIC + Mupirocin,bacterial isolates; E. coli SBECO2,2 µg/mL
same,Peptide MIC + Vancomycin,bacterial isolates; E. faecalis EFS007,1 µg/mL
same,Vancomycin MIC + Peptide,bacterial isolates; E. faecalis EFS007,1 µg/mL
same,Peptide MIC + Vancomycin,bacterial isolates; E. faecalis EFS012,1 µg/mL
same,Vancomycin MIC + Peptide,bacterial isolates; E. faecalis EFS012,16 µg/mL
same,Peptide MIC + Vancomycin,bacterial isolates; E. faecalis EFS013,1 µg/mL
same,Vancomycin MIC + Peptide,bacterial isolates; E. faecalis EFS013,32 µg/mL
same,Peptide MIC + Vancomycin,bacterial isolates; E. faecium EFM010,2 µg/mL
same,Vancomycin MIC + Peptide,bacterial isolates; E. faecium EFM010,32 µg/mL
same,Ciprofloxacin MIC + Peptide,bacterial isolates; P. aeruginosa PA4,0.125 µg/mL
same,Peptide MIC + Ciprofloxacin,bacterial isolates; P. aeruginosa PA4,32 µg/mL
same,Peptide MIC + Tobramycin,bacterial isolates; P. aeruginosa PA022,0.125 µg/mL
same,Tobramycin MIC + Peptide,bacterial isolates; P. aeruginosa PA022,4 µg/mL
same,Peptide MIC Alone,bacterial isolates; P. aeruginosa PA022,4 µg/mL
same,Peptide MIC + Tobramycin,bacterial isolates; P. aeruginosa PA026,0.125 µg/mL
same,Tobramycin MIC + Peptide,bacterial isolates; P. aeruginosa PA026,4 µg/mL
same,Peptide MIC Alone,bacterial isolates; P. aeruginosa PA026,16 µg/mL
same,Ciprofloxacin MIC + Peptide,bacterial isolates; P. aeruginosa PA41,1 µg/mL
same,Peptide MIC + Ciprofloxacin,bacterial isolates; P. aeruginosa PA41,4 µg/mL
same,Mupirocin MIC + Peptide,bacterial isolates; P. aeruginosa SBPA1,30 µg/mL
same,Peptide MIC + Mupirocin,bacterial isolates; P. aeruginosa SBPA1,32 µg/mL
same,Peptide MIC + Tobramycin,bacterial isolates; [4],16 µg/mL
same,Tobramycin MIC + Peptide,bacterial isolates; [4],0.125 µg/mL
same,Peptide MIC Alone,bacterial isolates; [4],32 µg/mL
same,Ciprofloxacin MIC + Peptide,bacterial isolates; S. aureus SA25,0.125 µg/mL
same,Peptide MIC + Ciprofloxacin,bacterial isolates; S. aureus SA25,4 µg/mL
same,Peptide MIC + Tobramycin,bacterial isolates; [5],1 µg/mL
same,Tobramycin MIC + Peptide,bacterial isolates; [5],0.125 µg/mL
same,Peptide MIC Alone,bacterial isolates; [5],2 µg/mL
same,Ciprofloxacin MIC + Peptide,bacterial isolates; S. aureus SA93,8 µg/mL
same,Peptide MIC + Ciprofloxacin,bacterial isolates; S. aureus SA93,1 µg/mL
same,Peptide MIC + Tobramycin,bacterial isolates; S. haemolyticus SHA001,4 µg/mL
same,Tobramycin MIC + Peptide,bacterial isolates; S. haemolyticus SHA001,0.5 µg/mL
same,Peptide MIC Alone,bacterial isolates; S. haemolyticus SHA001,16 µg/mL
same,Peptide MIC + Tobramycin,bacterial isolates; S. haemolyticus SHA005,4 µg/mL
same,Tobramycin MIC + Peptide,bacterial isolates; S. haemolyticus SHA005,1 µg/mL
same,Peptide MIC Alone,bacterial isolates; S. haemolyticus SHA005,32 µg/mL
same,Peptide MIC + Tobramycin,bacterial isolates; S. maltophilia SMA029,32 µg/mL
same,Tobramycin MIC + Peptide,bacterial isolates; S. maltophilia SMA029,4 µg/mL
same,Peptide MIC Alone,bacterial isolates; S. maltophilia SMA029,128 µg/mL
same,Peptide MIC + Tobramycin,bacterial isolates; S. maltophilia SMA030,32 µg/mL
same,Tobramycin MIC + Peptide,bacterial isolates; S. maltophilia SMA030,4 µg/mL
same,Peptide MIC Alone,bacterial isolates; S. maltophilia SMA030,>128 µg/mL
same,FIC,"bacterial isolates; peptide + Ciprofloxacin, P. aeruginosa PA4",0.50
same,FIC,"bacterial isolates; peptide + Ciprofloxacin, P. aeruginosa PA41",0.50
same,FIC,"bacterial isolates; peptide + Ciprofloxacin, S. aureus SA25",0.16
same,FIC,"bacterial isolates; peptide + Ciprofloxacin, S. aureus SA93",0.50
same,FIC,"bacterial isolates; peptide + Mupirocin, E. coli ECO3",0.28
same,FIC,"bacterial isolates; peptide + Mupirocin, E. coli SBECO2",0.28
same,FIC,"bacterial isolates; peptide + Mupirocin, P. aeruginosa SBPA1",0.53
same,FIC,"bacterial isolates; peptide + Tobramycin, B. cepacia BC001",0.25
same,FIC,"bacterial isolates; peptide + Tobramycin, P. aeruginosa PA022",0.53
same,FIC,"bacterial isolates; peptide + Tobramycin, P. aeruginosa PA026",0.51
same,FIC,"bacterial isolates; peptide + Tobramycin, S. aureus SA014 (also SA014 MRSA)",0.50
same,FIC,"bacterial isolates; peptide + Tobramycin, S. aureus SA025 (also SA025 MRSA)",0.50
same,FIC,"bacterial isolates; peptide + Tobramycin, S. haemolyticus SHA001",0.50
same,FIC,"bacterial isolates; peptide + Tobramycin, S. haemolyticus SHA005",0.38
same,FIC,"bacterial isolates; peptide + Tobramycin, S. maltophilia SMA029",0.28
same,FIC,"bacterial isolates; peptide + Tobramycin, S. maltophilia SMA030",0.16
same,FIC,"bacterial isolates; peptide + Vancomycin, E. faecalis EFS007",0.56
same,FIC,"bacterial isolates; peptide + Vancomycin, E. faecalis EFS012",0.16
same,FIC,"bacterial isolates; peptide + Vancomycin, E. faecalis EFS013",0.28
same,FIC,"bacterial isolates; peptide + Vancomycin, E. faecium EFM010",0.56
same,Ciprofloxacin MIC + Peptide,S. aureus,0.125 µg/mL
same,Peptide MIC + Ciprofloxacin,S. aureus,4 µg/mL
